Experimental data: ChEMBL document CHEMBL1139689, “Discovery and preliminary structure-activity relationship studies of novel benzotriazine based compounds as Src inhibitors” (Bioorg Med Chem Lett, 2006)

Assays:
[1] = molecular target: Proto-oncogene tyrosine-protein kinase Src (Homo sapiens, UniProt P12931)
[2] = molecular target: Serine/threonine-protein kinase RAF and Dual specificity mitogen-activated protein kinase kinase 1 (Raf/MEK) (Homo sapiens, UniProt P04049+Q02750); test: Inhibition of Raf1-MEK1; format: protein assay
[3] = molecular target: Tyrosine-protein kinase Blk (Homo sapiens, UniProt P51451); test: Inhibition of Blk
[4] = molecular target: RAF proto-oncogene serine/threonine-protein kinase (Homo sapiens, UniProt P04049); test: Inhibition of Raf1 kinase
[5] = molecular target: Angiopoietin-1 receptor (Homo sapiens, UniProt Q02763); test: Inhibition of Tie2
[6] = molecular target: Tyrosine-protein kinase ABL1 (Homo sapiens, UniProt P00519); test: Inhibition of Abl
[7] = molecular target: Tyrosine-protein kinase CSK (Homo sapiens, UniProt P41240); test: Inhibition of CSK
[8] = molecular target: Tyrosine-protein kinase ABL1 (Homo sapiens, UniProt P00519, T315I); test: Inhibition of Abl T315I mutant
[9] = molecular target: Ribosomal protein S6 kinase beta-1 (Homo sapiens, UniProt P23443); test: Inhibition of p70S6K
[10] = molecular target: Tyrosine-protein kinase Lyn (Homo sapiens, UniProt P07948); test: Inhibition of Lyn
[11] = molecular target: Tyrosine-protein kinase Fyn (Homo sapiens, UniProt P06241); test: Inhibition of Fyn
[12] = molecular target: Vascular endothelial growth factor receptor 2 (Homo sapiens, UniProt P35968); test: Inhibition of VEGFR2
Chain of Vascular endothelial growth factor receptor 2 (P35968 whole entry): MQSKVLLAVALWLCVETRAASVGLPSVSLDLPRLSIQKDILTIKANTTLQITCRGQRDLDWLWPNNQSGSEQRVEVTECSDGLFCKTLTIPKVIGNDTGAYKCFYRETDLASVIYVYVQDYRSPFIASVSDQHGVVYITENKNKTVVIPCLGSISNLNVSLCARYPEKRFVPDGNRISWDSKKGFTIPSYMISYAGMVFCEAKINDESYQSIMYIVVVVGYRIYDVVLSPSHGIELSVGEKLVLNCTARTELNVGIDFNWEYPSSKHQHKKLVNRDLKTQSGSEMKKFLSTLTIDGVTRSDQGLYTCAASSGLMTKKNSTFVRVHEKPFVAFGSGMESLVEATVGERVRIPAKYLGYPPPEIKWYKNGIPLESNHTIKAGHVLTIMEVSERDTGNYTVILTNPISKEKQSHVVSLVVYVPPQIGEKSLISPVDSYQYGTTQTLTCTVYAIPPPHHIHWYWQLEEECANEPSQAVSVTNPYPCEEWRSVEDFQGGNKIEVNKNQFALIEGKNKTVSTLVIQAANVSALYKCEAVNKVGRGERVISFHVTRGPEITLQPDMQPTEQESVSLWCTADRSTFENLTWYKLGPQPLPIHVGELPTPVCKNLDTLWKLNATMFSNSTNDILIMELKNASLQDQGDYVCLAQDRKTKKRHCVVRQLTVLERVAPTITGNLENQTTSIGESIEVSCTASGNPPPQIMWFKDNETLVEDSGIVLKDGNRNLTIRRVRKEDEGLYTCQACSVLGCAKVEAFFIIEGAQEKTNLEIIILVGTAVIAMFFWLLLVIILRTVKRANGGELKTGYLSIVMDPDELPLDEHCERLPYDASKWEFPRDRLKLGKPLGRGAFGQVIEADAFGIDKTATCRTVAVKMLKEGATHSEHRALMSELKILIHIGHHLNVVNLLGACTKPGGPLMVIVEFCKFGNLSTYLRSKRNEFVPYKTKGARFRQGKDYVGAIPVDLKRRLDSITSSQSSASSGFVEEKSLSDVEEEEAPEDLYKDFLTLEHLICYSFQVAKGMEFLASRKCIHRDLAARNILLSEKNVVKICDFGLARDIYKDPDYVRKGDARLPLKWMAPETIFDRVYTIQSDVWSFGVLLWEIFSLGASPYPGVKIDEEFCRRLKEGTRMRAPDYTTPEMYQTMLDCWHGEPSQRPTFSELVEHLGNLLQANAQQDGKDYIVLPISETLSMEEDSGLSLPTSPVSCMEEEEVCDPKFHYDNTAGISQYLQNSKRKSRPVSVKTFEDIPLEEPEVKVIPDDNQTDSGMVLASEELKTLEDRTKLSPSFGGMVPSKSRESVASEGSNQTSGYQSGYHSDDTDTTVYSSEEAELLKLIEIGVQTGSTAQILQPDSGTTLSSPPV

Chain of Proto-oncogene tyrosine-protein kinase Src (P12931 2-536 limits assumed): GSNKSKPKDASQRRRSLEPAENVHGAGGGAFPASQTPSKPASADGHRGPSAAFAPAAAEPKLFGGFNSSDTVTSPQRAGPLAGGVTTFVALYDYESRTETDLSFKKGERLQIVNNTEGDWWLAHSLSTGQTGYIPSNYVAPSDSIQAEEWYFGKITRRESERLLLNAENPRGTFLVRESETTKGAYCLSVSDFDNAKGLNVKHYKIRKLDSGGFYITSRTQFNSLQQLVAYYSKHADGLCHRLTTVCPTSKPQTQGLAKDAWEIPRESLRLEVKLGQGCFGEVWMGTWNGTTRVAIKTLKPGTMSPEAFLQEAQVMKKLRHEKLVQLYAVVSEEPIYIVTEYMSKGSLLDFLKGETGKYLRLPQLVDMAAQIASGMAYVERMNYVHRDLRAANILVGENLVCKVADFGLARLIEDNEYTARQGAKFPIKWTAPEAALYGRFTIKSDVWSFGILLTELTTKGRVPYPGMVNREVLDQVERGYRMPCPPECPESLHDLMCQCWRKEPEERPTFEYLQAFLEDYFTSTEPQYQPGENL
Chain of Tyrosine-protein kinase Fyn (P06241 whole entry): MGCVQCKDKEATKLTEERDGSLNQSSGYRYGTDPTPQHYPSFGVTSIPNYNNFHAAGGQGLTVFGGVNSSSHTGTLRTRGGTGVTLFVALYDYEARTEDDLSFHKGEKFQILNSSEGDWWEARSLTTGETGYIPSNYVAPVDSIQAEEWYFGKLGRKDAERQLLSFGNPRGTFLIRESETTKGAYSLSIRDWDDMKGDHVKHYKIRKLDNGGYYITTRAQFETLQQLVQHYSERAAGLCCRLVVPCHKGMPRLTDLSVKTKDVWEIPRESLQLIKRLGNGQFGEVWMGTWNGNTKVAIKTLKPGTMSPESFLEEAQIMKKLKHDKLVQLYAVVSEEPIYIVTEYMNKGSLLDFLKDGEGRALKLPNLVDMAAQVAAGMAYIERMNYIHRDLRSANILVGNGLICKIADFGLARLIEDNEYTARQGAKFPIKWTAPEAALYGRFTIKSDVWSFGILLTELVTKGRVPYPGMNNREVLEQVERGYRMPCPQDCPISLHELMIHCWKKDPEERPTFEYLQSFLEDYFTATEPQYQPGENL
Chain of RAF proto-oncogene serine/threonine-protein kinase (P04049 whole entry): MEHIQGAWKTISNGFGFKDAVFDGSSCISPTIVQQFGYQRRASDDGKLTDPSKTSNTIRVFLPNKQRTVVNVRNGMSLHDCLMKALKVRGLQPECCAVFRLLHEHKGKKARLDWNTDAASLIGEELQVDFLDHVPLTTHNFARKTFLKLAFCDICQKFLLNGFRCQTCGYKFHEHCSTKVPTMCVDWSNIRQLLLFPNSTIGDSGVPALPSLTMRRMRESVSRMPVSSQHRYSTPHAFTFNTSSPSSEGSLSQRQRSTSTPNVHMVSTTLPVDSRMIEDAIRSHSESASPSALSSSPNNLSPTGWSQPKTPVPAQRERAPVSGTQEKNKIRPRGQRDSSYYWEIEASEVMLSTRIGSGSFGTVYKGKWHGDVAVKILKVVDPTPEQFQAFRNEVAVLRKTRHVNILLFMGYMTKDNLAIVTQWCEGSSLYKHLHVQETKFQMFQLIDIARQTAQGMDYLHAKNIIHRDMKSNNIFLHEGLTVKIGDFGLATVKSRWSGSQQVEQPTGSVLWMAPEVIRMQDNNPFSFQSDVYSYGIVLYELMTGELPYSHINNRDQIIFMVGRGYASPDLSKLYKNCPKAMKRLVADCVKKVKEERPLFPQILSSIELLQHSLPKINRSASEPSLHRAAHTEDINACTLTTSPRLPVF
Chain of Tyrosine-protein kinase Blk (P51451 whole entry): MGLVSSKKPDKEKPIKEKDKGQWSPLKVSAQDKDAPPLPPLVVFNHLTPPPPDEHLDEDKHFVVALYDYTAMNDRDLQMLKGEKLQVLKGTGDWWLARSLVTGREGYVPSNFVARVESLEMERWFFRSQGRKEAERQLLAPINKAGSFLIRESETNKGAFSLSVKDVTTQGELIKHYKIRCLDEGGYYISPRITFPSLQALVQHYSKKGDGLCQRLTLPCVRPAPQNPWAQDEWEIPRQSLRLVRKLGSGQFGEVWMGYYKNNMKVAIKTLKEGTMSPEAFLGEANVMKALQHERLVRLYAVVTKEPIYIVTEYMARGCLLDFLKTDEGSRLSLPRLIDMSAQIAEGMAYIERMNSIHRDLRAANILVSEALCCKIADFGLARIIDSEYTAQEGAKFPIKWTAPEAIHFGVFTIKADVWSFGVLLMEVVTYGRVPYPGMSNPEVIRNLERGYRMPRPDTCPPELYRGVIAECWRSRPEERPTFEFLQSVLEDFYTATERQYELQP
Chain of Angiopoietin-1 receptor (Q02763 whole entry): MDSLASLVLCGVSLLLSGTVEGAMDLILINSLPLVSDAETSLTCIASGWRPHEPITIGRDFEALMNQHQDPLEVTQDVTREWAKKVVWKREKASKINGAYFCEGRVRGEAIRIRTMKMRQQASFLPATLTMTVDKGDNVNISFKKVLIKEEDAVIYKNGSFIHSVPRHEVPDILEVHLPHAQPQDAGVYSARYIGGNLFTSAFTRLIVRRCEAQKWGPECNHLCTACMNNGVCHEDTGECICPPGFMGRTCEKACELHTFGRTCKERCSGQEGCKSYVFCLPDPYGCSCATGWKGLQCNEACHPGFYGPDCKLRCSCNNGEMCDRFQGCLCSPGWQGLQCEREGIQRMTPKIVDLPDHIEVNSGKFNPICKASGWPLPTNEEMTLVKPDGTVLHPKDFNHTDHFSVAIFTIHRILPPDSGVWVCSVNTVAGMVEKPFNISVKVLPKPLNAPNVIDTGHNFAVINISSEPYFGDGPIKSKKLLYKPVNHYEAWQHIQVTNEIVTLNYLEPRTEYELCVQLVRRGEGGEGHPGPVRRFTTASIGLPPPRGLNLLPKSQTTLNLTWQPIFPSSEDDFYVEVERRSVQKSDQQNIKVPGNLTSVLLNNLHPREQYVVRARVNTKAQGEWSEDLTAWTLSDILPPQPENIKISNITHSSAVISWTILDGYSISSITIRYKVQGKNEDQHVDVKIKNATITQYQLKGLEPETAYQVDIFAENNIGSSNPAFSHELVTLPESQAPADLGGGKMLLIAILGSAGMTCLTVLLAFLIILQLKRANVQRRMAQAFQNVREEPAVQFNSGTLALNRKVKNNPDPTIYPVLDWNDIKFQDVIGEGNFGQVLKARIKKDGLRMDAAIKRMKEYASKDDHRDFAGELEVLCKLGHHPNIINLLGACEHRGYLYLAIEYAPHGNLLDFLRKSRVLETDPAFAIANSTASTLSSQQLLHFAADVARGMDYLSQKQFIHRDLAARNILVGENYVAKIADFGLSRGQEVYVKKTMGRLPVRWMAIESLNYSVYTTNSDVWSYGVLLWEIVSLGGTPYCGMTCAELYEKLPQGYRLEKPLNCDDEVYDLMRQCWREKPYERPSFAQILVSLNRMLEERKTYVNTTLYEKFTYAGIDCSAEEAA

Row | IC50 [1] | SMILES | also measured
1 | 480 nM | Cc1cccc(C)c1-c1cc(C)c2nc(Nc3cccc(S(=O)(=O)N4CCNCC4)c3)nnc2c1 | 
2 | 3600 nM | Cc1cc(-c2c(Cl)cccc2Cl)cc2nnc(N)nc12 | 
3 | > 50000 nM | Cc1cc(C)c(-c2cc(C)c3nc(Nc4ccccc4)nnc3c2)c(C)c1 | 
4 | > 50000 nM | Cc1cccc(C)c1-c1cc(C)c2nc(Nc3cccc4cccnc34)nnc2c1 | 
5 | 7400 nM | Cc1cccc(C)c1-c1cc(C)c2nc(N)nnc2c1 | 
6 | 1500 nM | Cc1cc(-c2cc(O)ccc2Cl)cc2nnc(N)nc12 | 
7 | 41 nM | CCOC1CN(C)CCN1c1cccc(Nc2nnc3cc(-c4c(C)cccc4C)cc(C)c3n2)c1 (stereo not given) | 
8 | > 50000 nM | Nc1nnc2cc(-c3ccccc3)ccc2n1 | 
9 | > 50000 nM | Cc1cccc(Nc2nnc3cc(-c4c(C)cccc4C)cc(C)c3n2)c1C | 
10 | 10 nM | CCN(CC)CCOc1ccc(Nc2nnc3cc(-c4c(C)cccc4C)cc(C)c3n2)cc1 | 
11 | > 50000 nM | Cc1cccc(C)c1-c1cc(C)c2nc(Nc3ccccn3)nnc2c1 | 
12 | > 50000 nM | CCCCc1ccc(Nc2nnc3cc(-c4c(C)cccc4C)cc(C)c3n2)cc1 | 
13 | 40 nM | Cc1cccc(C)c1-c1cc(C)c2nc(Nc3ccncc3)nnc2c1 | 
14 | > 50000 nM | CC(=O)Nc1nnc2cc(-c3c(C)cccc3C)cc(C)c2n1 | 
15 | 2200 nM | Cc1cccc(C)c1-c1ccc2nc(N)nnc2c1 | 
16 | 410 nM | Cc1cccc(C)c1-c1cc(C)c2nc(Nc3ccccc3)nnc2c1 | 
17 | > 50000 nM | Cc1ccc(C)c(Nc2nnc3cc(-c4c(C)cccc4C)cc(C)c3n2)c1 | 
18 | 40 nM | CCCOC1CN(C)CCN1c1cccc(Nc2nnc3cc(-c4c(C)cccc4C)cc(C)c3n2)c1 (stereo not given) | 
19 | > 50000 nM | Cc1cc(-c2ccccc2Cl)cc2nnc(N)nc12 | 
20 | > 50000 nM | COc1ccccc1Nc1nnc2cc(-c3c(C)cccc3C)cc(C)c2n1 | 
21 | 12000 nM | Nc1nnc2cc(-c3ccc4c(c3)OCO4)ccc2n1 | 
22 | 5200 nM | Nc1nnc2cc(-c3ccc4ccccc4c3)ccc2n1 | 
23 | 32 nM | CCOC1CN(c2ccc(Nc3nnc4cc(-c5c(C)cccc5C)cc(C)c4n3)cc2)CCO1 (stereo not given) | 
24 |  | Cc1cccc(C)c1-c1cc(C)c2nc(Nc3ccc(OCCN4CCCC4)cc3)nnc2c1 | IC50 [2]: 69 nM; IC50 [3]: 1320 nM; IC50 [4]: 68 nM; IC50 [5]: 678 nM; IC50 [6]: 20 nM; IC50 [7]: 659 nM; IC50 [8]: 5990 nM; IC50 [9]: 2710 nM; IC50 [10]: 21 nM; IC50 [11]: 23 nM; IC50 [12]: 555 nM
25 | > 50000 nM | Cc1ccc(Nc2nnc3cc(-c4c(C)cccc4C)cc(C)c3n2)c(C)c1 | 
